Our source for the IC50 and Ki values is patent publication US20250313572A1, “MACROCYCLIC MCL-1 INHIBITORS AND METHODS OF USE” (AbbVie Inc., priority 2017, published 2025).

The structures appear in SMILES notation. Like-named read-outs stand apart in the source and are kept apart here. Bounds are passed on as bounds.

In assay [1] the test system is AMO-1 human multiple myeloma tumor cell line. The assay is described as follows: AMO-1 cell viability assay (CellTiter-Glo, 24 hours). The assay is classed as cell-based. The following applies: Homo sapiens, AMO1, 24 h, read-out: AMO-1 Viability IC50 (μM, 10% FBS), 10% FBS, 24 hours of compound treatment.
In the next assay the target is GST-MCL-1 (Homo sapiens, UniProt Q07820). Description: TR-FRET MCL-1 binding assay (competition with probe F-Bak). The gist of the method: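 Test compounds, 11 three-fold dilutions from 25 μM final, incubated 2 hours at room temperature with GST-MCL-1, F-Bak probe and Tb-anti-GST antibody. TR-FRET read at 340/35 nm excitation with 520/525 and 495/510 nm emission. Run without human serum and with 10% HS.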
For orientation: Time-resolved FRET reads energy transfer from a long-lived donor to a nearby acceptor.

Assay [2] has as its system NCI-H929 human multiple myeloma tumor cell line. The assay is described as follows: NCI-H929 cell viability assay (CellTiter-Glo, 24 hours). The assay is classed as cell-based. The following applies: Homo sapiens, NCI-H929, 24 h, read-out: H929 Viability IC50 (μM, 10% FBS), 10% FBS, 24 hours of compound treatment. For orientation: ATP-based viability assays read luminescence as a measure of living cells.

Setting [3] is: MCL-1 Binding Ki (nM, 10% HS), in the presence of 10% HS (human serum).
[4] abbreviates: without HS, read-out: MCL-1 Binding Ki.

Usually IC50 stands for the midpoint of a concentration-inhibition curve. In general, Ki refers to the dissociation constant of the complex between target and ligand, obtained from inhibition or displacement.

Sequence of GST-MCL-1 (Q07820 whole entry): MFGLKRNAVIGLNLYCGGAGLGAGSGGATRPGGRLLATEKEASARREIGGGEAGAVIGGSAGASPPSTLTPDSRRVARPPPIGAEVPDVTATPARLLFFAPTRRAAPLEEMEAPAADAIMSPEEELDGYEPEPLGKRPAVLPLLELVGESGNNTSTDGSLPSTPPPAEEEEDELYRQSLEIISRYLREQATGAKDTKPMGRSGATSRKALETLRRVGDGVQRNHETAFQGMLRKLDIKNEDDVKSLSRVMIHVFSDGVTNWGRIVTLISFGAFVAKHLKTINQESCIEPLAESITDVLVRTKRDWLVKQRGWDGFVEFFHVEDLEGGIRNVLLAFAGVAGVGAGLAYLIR

Take `COCCOCCOCCOCCCN1CCN(c2nccc(COc3ccc4cc3C[C@H](C(=O)O)Oc3ncnc5sc(-c6ccc(F)cc6)c(c35)-c3c(C)c(Cl)c(c(Cl)c3C)O[C@H](CN3CCN(C)CC3)CO4)n2)CC1` [Example 53, (7R,16R)-19,23-dichloro-1-(4-fluorophenyl)-20,22-dimethyl-16-[(4-methylpiperazin-1-yl)methyl]-10-({2-[4-(2,5,8,11-tetraoxatetradecan-14-yl)piperazin-1-yl]pyrimidin-4-yl}methoxy)-7,8,15,16-tetrahydro-18,21-etheno-13,9-(metheno)-6,14,17-trioxa-2-thia-3,5-diazacyclononadeca[1,2,3-cd]indene-7-carboxylic Acid]: the IC50 stood at 0.0042 µM in assay [1] and 0.00571 µM in assay [2]. In addition, the Ki on GST-MCL-1 (setting [3]) was determined as 0.632 nM; on GST-MCL-1 (setting [4]), 0.301 nM.

As to `COCCOCCOCCOCCOCCOCCOCCOc1ccc(-c2nccc(COc3ccc4cc3C[C@H](C(=O)O)Oc3ncnc5sc(-c6ccc(F)cc6)c(c35)-c3c(C)c(Cl)c(c(Cl)c3C)O[C@H](CN3CCN(C)CC3)CO4)n2)cc1` [Example 54, (7R,16R)-19,23-dichloro-1-(4-fluorophenyl)-10-[(2-{4-[(2,5,8,11,14,17,20-heptaoxadocosan-22-yl)oxy]phenyl}pyrimidin-4-yl)methoxy]-20,22-dimethyl-16-[(4-methylpiperazin-1-yl)methyl]-7,8,15,16-tetrahydro-18,21-etheno-13,9-(metheno)-6,14,17-trioxa-2-thia-3,5-diazacyclononadeca[1,2,3-cd]indene-7-carboxylic Acid], the IC50 in assay [1] turned out to be 0.000591 µM; in assay [2], 0.000771 µM. Also, the Ki at GST-MCL-1 (setting [3]) was 0.139 nM; at GST-MCL-1 (setting [4]) it was 0.025 nM.

For `Cc1c2ccc(c1Cl)O[C@H](CN1CCN(C)CC1)COc1ccc(OCc3ccnc([C@H]4CCCN4C(=O)CCP(C)(C)=O)n3)c(c1)C[C@H](C(=O)O)Oc1ncnc3sc(-c4ccc(F)cc4)c-2c13` [Example 55, (7R,16R)-19-chloro-10-[(2-{(2R)-1-[3-(dimethylphosphoryl)propanoyl]pyrrolidin-2-yl}pyrimidin-4-yl)methoxy]-1-(4-fluorophenyl)-20-methyl-16-[(4-methylpiperazin-1-yl)methyl]-7,8,15,16-tetrahydro-18,21-etheno-13,9-(metheno)-6,14,17-trioxa-2-thia-3,5-diazacyclononadeca[1,2,3-cd]indene-7-carboxylic Acid], the IC50 in assay [1] and in assay [2] was more than 1 µM each time. In addition, the Ki is 92.6 nM at GST-MCL-1 (setting [3]) and 38.2 nM at GST-MCL-1 (setting [4]).

Turning to `Cc1c(Cl)c2c(Cl)c(C)c1-c1c(-c3ccc(F)cc3)sc3ncnc(c13)O[C@@H](C(=O)O)Cc1cc(ccc1OCc1ccnc(N3C[C@H](O)[C@@H](O)C3)n1)OC[C@@H](CN1CCN(C)CC1)O2` [Example 56, (7R,16R)-19,23-dichloro-10-({2-[(3S,4S)-3,4-dihydroxypyrrolidin-1-yl]pyrimidin-4-yl}methoxy)-1-(4-fluorophenyl)-20,22-dimethyl-16-[(4-methylpiperazin-1-yl)methyl]-7,8,15,16-tetrahydro-18,21-etheno-13,9-(metheno)-6,14,17-trioxa-2-thia-3,5-diazacyclononadeca[1,2,3-cd]indene-7-carboxylic Acid], the 50% inhibitory concentration (IC50) in assay [1] was 0.0534 µM; in assay [2] it was 0.13 µM. In addition, the Ki at GST-MCL-1 (setting [3]) is 1.18 nM; at GST-MCL-1 (setting [4]), 0.157 nM.

Turning to `COCCOCCOCCO[C@H]1CC[C@H](c2nccc(COc3ccc4cc3C[C@H](C(=O)O)Oc3ncnc5sc(-c6ccc(F)cc6)c(c35)-c3c(C)c(Cl)c(c(Cl)c3C)O[C@H](CN3CCN(C)CC3)CO4)n2)CC1` [Example 57, (7R,16R)-19,23-dichloro-1-(4-fluorophenyl)-10-({2-[(1r,4r)-4-{2-[2-(2-methoxyethoxy)ethoxy]ethoxy}cyclohexyl]pyrimidin-4-yl}methoxy)-20,22-dimethyl-16-[(4-methylpiperazin-1-yl)methyl]-7,8,15,16-tetrahydro-18,21-etheno-13,9-(metheno)-6,14,17-trioxa-2-thia-3,5-diazacyclononadeca[1,2,3-cd]indene-7-carboxylic Acid], the IC50 in assay [1] was found to be 0.000244 µM; in assay [2], 0.00037 µM. The figures for the Ki at GST-MCL-1 (setting [3]) and on GST-MCL-1 (setting [4]) were 0.072 nM and 0.013 nM, respectively.

`COCCOCCOCCOCCOCC1(c2nccc(COc3ccc4cc3C[C@H](C(=O)O)Oc3ncnc5sc(-c6ccc(F)cc6)c(c35)-c3c(C)c(Cl)c(c(Cl)c3C)O[C@H](CN3CCN(C)CC3)CO4)n2)CCC1` [Example 58, (7R,16R)-19,23-dichloro-1-(4-fluorophenyl)-20,22-dimethyl-16-[(4-methylpiperazin-1-yl)methyl]-10-({2-[1-(2,5,8,11,14-pentaoxapentadecan-1-yl)cyclobutyl]pyrimidin-4-yl}methoxy)-7,8,15,16-tetrahydro-18,21-etheno-13,9-(metheno)-6,14,17-trioxa-2-thia-3,5-diazacyclononadeca[1,2,3-cd]indene-7-carboxylic Acid]: the values for the IC50 in assay [1] and in assay [2] were 0.000378 µM and 0.00056 µM, respectively. The Ki was 0.161 nM at GST-MCL-1 (setting [3]) and 0.05 nM on GST-MCL-1 (setting [4]).

On to `COCCOCCOCCOCCOCCOCC1(c2nccc(COc3ccc4cc3C[C@H](C(=O)O)Oc3ncnc5sc(-c6ccc(F)cc6)c(c35)-c3c(C)c(Cl)c(c(Cl)c3C)O[C@H](CN3CCN(C)CC3)CO4)n2)CCC1` [Example 59, (7R,16R)-19,23-dichloro-1-(4-fluorophenyl)-10-({2-[1-(2,5,8,11,14,17-hexaoxaoctadecan-1-yl)cyclobutyl]pyrimidin-4-yl}methoxy)-20,22-dimethyl-16-[(4-methylpiperazin-1-yl)methyl]-7,8,15,16-tetrahydro-18,21-etheno-13,9-(metheno)-6,14,17-trioxa-2-thia-3,5-diazacyclononadeca[1,2,3-cd]indene-7-carboxylic Acid], for which the IC50 worked out at 0.000686 µM in assay [1] and 0.000848 µM in assay [2]. Further, the Ki came to 0.122 nM on GST-MCL-1 (setting [3]) and 0.047 nM at GST-MCL-1 (setting [4]).

For the compound `COCCOCCOCCOCCOCCOCCOCC1(c2nccc(COc3ccc4cc3C[C@H](C(=O)O)Oc3ncnc5sc(-c6ccc(F)cc6)c(c35)-c3c(C)c(Cl)c(c(Cl)c3C)O[C@H](CN3CCN(C)CC3)CO4)n2)CCC1` [Example 60, (7R,16R)-19,23-dichloro-1-(4-fluorophenyl)-10-({2-[1-(2,5,8,11,14,17,20-heptaoxahenicosan-1-yl)cyclobutyl]pyrimidin-4-yl}methoxy)-20,22-dimethyl-16-[(4-methylpiperazin-1-yl)methyl]-7,8,15,16-tetrahydro-18,21-etheno-13,9-(metheno)-6,14,17-trioxa-2-thia-3,5-diazacyclononadeca[1,2,3-cd]indene-7-carboxylic Acid], the IC50 came out at 0.000987 µM in assay [1] and 0.00115 µM in assay [2]. Moreover, the Ki is 0.125 nM on GST-MCL-1 (setting [3]) and 0.042 nM at GST-MCL-1 (setting [4]).

Turning to `Cc1c(Cl)c2c(Cl)c(C)c1-c1c(-c3ccc(F)cc3)sc3ncnc(c13)O[C@@H](C(=O)O)Cc1cc(ccc1OCc1ccnc(N3CCC4(CCCNC4=O)CC3)n1)OC[C@@H](CN1CCN(C)CC1)O2` [Example 61, (7R,16R)-19,23-dichloro-1-(4-fluorophenyl)-20,22-dimethyl-16-[(4-methylpiperazin-1-yl)methyl]-10-{[2-(1-oxo-2,9-diazaspiro[5.5]undecan-9-yl)pyrimidin-4-yl]methoxy}-7,8,15,16-tetrahydro-18,21-etheno-13,9-(metheno)-6,14,17-trioxa-2-thia-3,5-diazacyclononadeca[1,2,3-cd]indene-7-carboxylic Acid], the IC50 in assay [1] came to 0.00886 µM; in assay [2], 0.0115 µM. Further, the Ki is 4.2 nM on GST-MCL-1 (setting [3]) and 0.364 nM at GST-MCL-1 (setting [4]).

For `Cc1c(Cl)c2c(Cl)c(C)c1-c1c(-c3ccc(F)cc3)sc3ncnc(c13)O[C@@H](C(=O)O)Cc1cc(ccc1OCc1ccnc(C(CO)CO)n1)OC[C@@H](CN1CCN(C)CC1)O2` [Example 62, (7R,16R)-19,23-dichloro-10-{[2-(1,3-dihydroxypropan-2-yl)pyrimidin-4-yl]methoxy}-1-(4-fluorophenyl)-20,22-dimethyl-16-[(4-methylpiperazin-1-yl)methyl]-7,8,15,16-tetrahydro-18,21-etheno-9,13-(metheno)-6,14,17-trioxa-2-thia-3,5-diazacyclononadeca[1,2,3-cd]indene-7-carboxylic Acid], the concentration for half-maximal inhibition (IC50) in assay [1] stood at 0.0251 µM; in assay [2], 0.095 µM. Further, the Ki worked out at 2.26 nM at GST-MCL-1 (setting [3]) and 0.324 nM on GST-MCL-1 (setting [4]).

Turning to `COCCOCCOCCOCCOCCOC1(c2nccc(COc3ccc4cc3C[C@H](C(=O)O)Oc3ncnc5sc(-c6ccc(F)cc6)c(c35)-c3c(C)c(Cl)c(c(Cl)c3C)O[C@H](CN3CCN(C)CC3)CO4)n2)CCC1` [Example 63, (7R,16R)-19,23-dichloro-1-(4-fluorophenyl)-20,22-dimethyl-16-[(4-methylpiperazin-1-yl)methyl]-10-[(2-{1-[(2,5,8,11,14-pentaoxahexadecan-16-yl)oxy]cyclobutyl}pyrimidin-4-yl)methoxy]-7,8,15,16-tetrahydro-18,21-etheno-9,13-(metheno)-6,14,17-trioxa-2-thia-3,5-diazacyclononadeca[1,2,3-cd]indene-7-carboxylic Acid], the IC50 in assay [1] amounted to 0.00205 µM; in assay [2], 0.0032 µM. Besides, the Ki at GST-MCL-1 (setting [3]) worked out at 0.148 nM; at GST-MCL-1 (setting [4]), 0.039 nM.
